Measured values: PubChem BioAssay AID1963850 (Molecular Pharmacology Branch, DTP, NCI, 2024)
pIC50: −log10 of the molar value.

System: 192522-019-R-J2-PDC complex tumor spheroid viability
Assay: Anticancer human tumor 192522-019-R-J2-PDC patient-derived colon adenocarcinoma cell line growth inhibition [POLQ]
Settings: for pIC50: curve of first compound; for viability, T/C: stronger effect = lower value
Procedure, shortened: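 Patient-derived tumour cells were co-cultured with HUVEC and mesenchymal stem cells as multicellular spheroids at 37 °C. They were treated with POLQ inhibitors (novobiocin, ART-558, RP6685) alone or combined with other agents. Top concentrations were at or near clinical Cmax (otherwise 10 microM; SN-38 at 1 microM), decreasing in half-log steps.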
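Further: spheroids exposed to drugs for seven days before reading.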
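Wherever viability, T/C is given: 100% = DMSO vehicle control viability in luminescence.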

Q: With `C=CCn1c(=O)c2cnc(Nc3ccc(N4CCN(C)CC4)cc3)nc2n1-c1cccc(C(C)(C)O)n1` + Nc1ccc(C#CCN(C(=O)Cc2ncc(C(F)(F)F)cc2C(F)(F)F)c2ccc(F)cc2)nn1 as the molecule, how does the pIC50 (second compound 0.0316 µM) read?
A: 6.14

Q: And the pIC50 (second compound 0.1 µM)?
A: 6.12

Q: And the pIC50 (second compound 0.316 µM)?
A: 6.10

Q: What about the pIC50 (second compound 1 µM) of the same molecule?
A: 6.11

Q: And the pIC50 (second compound 3.16 µM)?
A: 6.05

Q: What about the pIC50 (second compound 10 µM) of the same molecule?
A: 6.08

Q: And the viability, T/C (second compound 0.0316 µM, first compound 0.00316 µM)?
A: 104%

Q: What about the viability, T/C (second compound 0.0316 µM, first compound 0.01 µM) of the same molecule?
A: 103%

Q: And the viability, T/C (second compound 0.0316 µM, first compound 0.0316 µM)?
A: 93%

Q: And the viability, T/C (second compound 0.0316 µM, first compound 0.1 µM)?
A: 91.8%

Q: And the viability, T/C (second compound 0.0316 µM, first compound 0.316 µM)?
A: 92.4%

Q: What about the viability, T/C (second compound 0.0316 µM, first compound 1 µM) of the same molecule?
A: 34.1%

Q: And the viability, T/C (second compound 0.1 µM, first compound 0.00316 µM)?
A: 107%

Q: And the viability, T/C (second compound 0.1 µM, first compound 0.01 µM)?
A: 103%

Q: What about the viability, T/C (second compound 0.1 µM, first compound 0.0316 µM) of the same molecule?
A: 97.5%

Q: What about the viability, T/C (second compound 0.1 µM, first compound 0.1 µM) of the same molecule?
A: 96.6%

Q: And the viability, T/C (second compound 0.1 µM, first compound 0.316 µM)?
A: 93.2%

Q: What about the viability, T/C (second compound 0.1 µM, first compound 1 µM) of the same molecule?
A: 35.9%

Q: And the viability, T/C (second compound 0.316 µM, first compound 0.00316 µM)?
A: 105%

Q: And the viability, T/C (second compound 0.316 µM, first compound 0.01 µM)?
A: 97.4%

Q: And the viability, T/C (second compound 0.316 µM, first compound 0.0316 µM)?
A: 92.3%

Q: What about the viability, T/C (second compound 0.316 µM, first compound 0.1 µM) of the same molecule?
A: 99.8%

Q: What about the viability, T/C (second compound 0.316 µM, first compound 0.316 µM) of the same molecule?
A: 93%

Q: And the viability, T/C (second compound 0.316 µM, first compound 1 µM)?
A: 39.5%

Q: And the viability, T/C (second compound 1 µM, first compound 0.00316 µM)?
A: 103%

Q: And the viability, T/C (second compound 1 µM, first compound 0.01 µM)?
A: 108%

Q: And the viability, T/C (second compound 1 µM, first compound 0.0316 µM)?
A: 102%

Q: What about the viability, T/C (second compound 1 µM, first compound 0.1 µM) of the same molecule?
A: 95.2%

Q: And the viability, T/C (second compound 1 µM, first compound 0.316 µM)?
A: 89.7%

Q: And the viability, T/C (second compound 1 µM, first compound 1 µM)?
A: 39%

Q: And the viability, T/C (second compound 3.16 µM, first compound 0.00316 µM)?
A: 108%

Q: What about the viability, T/C (second compound 3.16 µM, first compound 0.01 µM) of the same molecule?
A: 101%

Q: And the viability, T/C (second compound 3.16 µM, first compound 0.0316 µM)?
A: 104%

Q: And the viability, T/C (second compound 3.16 µM, first compound 0.1 µM)?
A: 94.8%

Q: What about the viability, T/C (second compound 3.16 µM, first compound 0.316 µM) of the same molecule?
A: 97.8%

Q: What about the viability, T/C (second compound 3.16 µM, first compound 1 µM) of the same molecule?
A: 45.3%

Q: And the viability, T/C (second compound 10 µM, first compound 0.00316 µM)?
A: 112%

Q: And the viability, T/C (second compound 10 µM, first compound 0.01 µM)?
A: 113%

Q: And the viability, T/C (second compound 10 µM, first compound 0.0316 µM)?
A: 110%

Q: And the viability, T/C (second compound 10 µM, first compound 0.1 µM)?
A: 106%

Q: What about the viability, T/C (second compound 10 µM, first compound 0.316 µM) of the same molecule?
A: 98.5%

Q: And the viability, T/C (second compound 10 µM, first compound 1 µM)?
A: 40.2%
